The record followed here is patent US8916599B2, “1H-benz imidazole-5-carboxamides as anti-inflammatory agents” (Orexo AB, priority 2008, dated 2014).

The melting point is the temperature, or range, at which the solid turns liquid. The term inhibition denotes the drop in the measured response relative to a control, in per cent.

Tested on in one data set: not given
Assay: not given
Details: not given
Turning to `O=C(Nc1ccccc1C(F)(F)F)c1ccc2[nH]c(Nc3c(Cl)cccc3Cl)nc2c1` [Example 113, 2-(2,6-Dichloro-phenylamino)-1H-benzimidazole-5-carboxylic acid (2-trifluoromethyl-phenyl)-amide], the melting point fell in the range of 143 to 145 °C.

In a further data set the target is T1, recombinant human mPGES-1 (Homo sapiens, UniProt O14684).
T1 construct: made in house; host or cells: Rosetta E. coli (microsomal/membrane fraction)
T1 sequence (O14684 1-152): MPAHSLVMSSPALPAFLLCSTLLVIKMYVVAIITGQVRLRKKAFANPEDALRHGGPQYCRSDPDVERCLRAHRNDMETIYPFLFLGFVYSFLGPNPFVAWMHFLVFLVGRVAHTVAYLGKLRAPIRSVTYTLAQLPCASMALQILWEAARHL
Nature of the data set: mPGES-1 inhibition test (microsomes, PGH2 substrate, HTRF detection of PGE2). The class given is biochemical. The settings on record: inhibition of mPGES-1 at 1 μM (marked in cell). Summed up: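 First, inhibitor is incubated with microsomal enzyme from Rosetta E. coli in KPi pH 7.4 containing 2.5 mM GSH for 25 minutes at room temperature. Next, PGH2 is added and stopped after one minute with FeCl2 stop solution. Finally, diluted samples undergo HTRF PGE2 quantification.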
(Time-resolved FRET reads energy transfer from a long-lived donor to a nearby acceptor.)
In the case of `O=C(Nc1ccc(Cl)c(F)c1)c1ccc2[nH]c(Nc3c(Cl)cccc3Cl)nc2c1` [Example 67, 2-(2,6-Dichloro-phenylamino)-1H-benzimidazole-5-carboxylic acid (4-chloro-3-fluoro-phenyl)-amide], the inhibition at 1 µM stood at 100%.
The same measure, in the same setting: the same measure for `COc1cc2c(cc1C(=O)N[C@H]1CC[C@H](C(F)(F)F)CC1)nc(Nc1c(Cl)ccc(Cl)c1F)n2C` [Example 643, 2-(3,6-Dichloro-2-fluoro-phenylamino)-6-methoxy-N-(trans-4-trifluoromethyl-cyclohex-1-yl)-1-methyl-1H-benzimidazole-5-carboxamide]: 100%.
Still for that read-out and setting: with `Cc1ccc(Cl)c(Nc2nc3cc(C(=O)N[C@H]4CC[C@H](C(F)(F)F)CC4)c(F)cc3n2C)c1F` [Example 629, 2-(6-Chloro-2-fluoro-3-methyl-phenylamino)-6-fluoro-N-(trans-4-trifluoromethyl-cyclohex-1-yl)-1-methyl-1H-benzimidazole-5-carboxamide] the figure was 99%.

The same data set, now with this note: inhibition of mPGES-1 at 10 μM.
Regarding `O=C(Nc1ccccc1C(F)(F)F)c1ccc2[nH]c(Nc3c(Cl)cccc3Cl)nc2c1` [Example 113, 2-(2,6-Dichloro-phenylamino)-1H-benzimidazole-5-carboxylic acid (2-trifluoromethyl-phenyl)-amide], the inhibition at 10 µM was 91%.
Take `Cn1c(Nc2c(Cl)cccc2Cl)nc2cc(C(=O)Nc3ccc(Br)cc3)ccc21` [Example 316, 2-(2,6-Dichloro-phenylamino)-1-methyl-1H-benzimidazole-5-carboxylic acid (4-bromo-phenyl)-amide]: the inhibition at 10 µM was 100%.
Consider `CC(C)[C@H]1CC[C@H](NC(=O)c2cc3nc(Nc4c(Cl)cccc4Cl)[nH]c3cc2F)CC1` [Example 375], for which the inhibition at 10 µM turned out to be 100%.
The same measure, in the same setting: with `CNC(=O)c1ccc(Cl)c(Nc2nc3cc(C(=O)Nc4ccc(Br)cc4)ccc3n2C)c1` [Example 574, N-(4-Bromophenyl)-2-(2-chloro-5-(methylcarbamoyl)-phenylamino)-1-methyl-1H-benzimidazole-5-carboxamide] the figure was 56%.
As to `CCc1ccnc(NC(=O)c2ccc3[nH]c(Nc4c(Cl)cccc4Cl)nc3c2)c1` [Example 120, 2-(2,6-Dichloro-phenylamino)-1H-benzimidazole-5-carboxylic acid (4-ethyl-pyridin-2-yl)-amide], the inhibition at 10 µM was found to be 96%.
Same read-out and setting: the same measure for `Cn1c(Nc2c(Cl)cccc2Cl)nc2cc(C(=O)NCc3cnccc3C(F)(F)F)c(F)cc21` [Example 126, 2-(2,6-Dichloro-phenylamino)-6-fluoro-1-methyl-1H-benzimidazole-5-carboxylic acid (4-trifluoromethyl-pyridin-3-ylmethyl)-amide]: 92%; for `Cn1c(Nc2ccc(Cl)cc2Cl)nc2cc(C(=O)Nc3ccc(Br)cc3)ccc21` [Example 519, N-(4-Bromophenyl)-2-(2,4-dichlorophenylamino)-1-methyl-1H-benzimidazole-5-carboxamide]: 95%; for `Cn1c(Nc2c(Cl)cccc2Cl)nc2cc(C(=O)NC3CCC4(CC4)C3)ccc21` (centres unmarked) [Example 436, 2-(2,6-Dichlorophenylamino)-1-methyl-N-(spiro[2.4]heptan-5-yl)-1H-benzimidazole-5-carboxamide]: 99%.
Take `COc1cc2[nH]c(Nc3c(Cl)cccc3Cl)nc2cc1C(=O)NCc1ncccc1OC` [Example 525, 2-(2,6-Dichlorophenylamino)-6-methoxy-N-((3-methoxypyridin-2-yl)methyl)-1H-benzimidazole-5-carboxamide]: the inhibition at 10 µM was 98%.
The same measure, in the same setting: the same measure for `Cc1ccc(NC(=O)c2ccc3[nH]c(Nc4c(Cl)cccc4Cl)nc3c2)cc1` [Example 5, 2-(2,6-Dichloro-phenylamino)-1H-benzimidazole-5-carboxylic acid p-tolylamide]: 100%; for `O=C(Nc1cc(Cl)ccn1)c1ccc2c(c1)nc(Nc1c(Cl)cccc1Cl)n2CC1CNC1` [Example 209, 2-(2,6-Dichloro-phenylamino)-(1-azetidin-3-ylmethyl)-1H-benzimidazole-5-carboxylic acid (4-chloro-pyridin-2-yl)-amide (trifluoroacetate)]: 100%; for `Cn1c(Nc2c(Cl)cccc2Cl)nc2cc(C(=O)NCC3CCCO3)ccc21` (centres unmarked) [Example 261, 2-(2,6-Dichloro-phenylamino)-1-methyl-1H-benzimidazole-5-carboxylic acid (tetrahydro-furan-2-ylmethyl)-amide]: 92%.
In the case of `CCCCOc1cccc(NC(=O)c2ccc3[nH]c(Nc4c(Cl)cccc4Cl)nc3c2)n1` [Example 426, N-(6-Butoxypyridin-2-yl)-2-(2,6-dichlorophenylamino)-1H-benzimidazole-5-carboxamide], the inhibition at 10 µM was 98%.
Still for that read-out and setting: with `CN(C)C(=O)c1ccc(Nc2nc3cc(C(=O)Nc4ccc(Br)cc4)ccc3n2C)c(Cl)c1` [Example 562, N-(4-Bromophenyl)-2-(2-chloro-4-(dimethylcarbamoyl)-phenylamino)-1-methyl-1H-benzimidazole-5-carboxamide] the figure was 97%; with `COc1cc2c(cc1C(=O)Nc1cc(Cl)c(C)cn1)nc(Nc1c(Cl)cccc1Cl)n2C` [Example 634, 2-(2,6-Dichlorophenylamino)-N-(4-chloro-5-methyl-pyridin-2-yl)-6-methoxy-1-methyl-1H-benzimidazole-5-carboxamide], 97%; with `Cn1c(Nc2c(Cl)cccc2Cl)nc2cc(C(=O)NCc3ncccc3C(F)(F)F)ccc21` [Example 244, 2-(2,6-Dichloro-phenylamino)-1-methyl-1H-benzimidazole-5-carboxylic acid (3-trifluoromethyl-pyridin-2-ylmethyl)-amide], 96%.
Same read-out and setting: the same measure for `Cn1c(Nc2c(Cl)cccc2Cl)nc2cc(C(=O)NCc3cn4cc(Cl)ccc4n3)c(F)cc21` [Example 564, N-((6-Chloroimidazo[1,2-a]pyridin-2-yl)methyl)-2-(2,6-dichlorophenylamino)-6-fluoro-1-methyl-1H-benzimidazole-5-carboxamide]: 70%.
Same read-out and setting: the same measure for `CN(C)CCn1c(Nc2c(Cl)cccc2Cl)nc2cc(C(=O)Nc3cc(Cl)ccn3)ccc21` [Example 273, 2-(2,6-Dichloro-phenylamino)-1-(2-dimethylamino-ethyl)-1H-benzimidazole-5-carboxylic acid (4-chloro-pyridin-2-yl)-amide]: 100%.
As for `Cc1cc2[nH]c(Nc3c(Cl)cccc3Cl)nc2cc1C(=O)NC1CCC(C(C)(C)C)CC1` (centres unmarked) [compound 148], the inhibition at 10 µM was 100%.
Consider `O=C(NCC1CCCCC1)c1ccc2[nH]c(Nc3c(Cl)cccc3Cl)nc2c1` [Example 288, 2-(2,6-Dichloro-phenylamino)-1H-benzimidazole-5-carboxylic acid cyclohexylmethyl-amide], for which the inhibition at 10 µM came to 100%.
For `COc1cc2[nH]c(Nc3c(Cl)ccc(Cl)c3F)nc2cc1C(=O)N[C@H]1CC[C@H](C(F)(F)F)CC1` [Example 617, 2-(3,6-Dichloro-2-fluoro-phenylamino)-6-methoxy-N-(4-trans-trifluoromethyl-cyclohex-1-yl)-1H-benzimidazole-5-carboxamide], the inhibition at 10 µM worked out at 100%.
In the case of `CNCCCn1c(Nc2c(Cl)cccc2Cl)nc2cc(C(=O)Nc3cc(Cl)ccn3)ccc21` [Example 266, 2-(2,6-Dichloro-phenylamino)-1-(3-methylamino-propyl)-1H-benzimidazole-5-carboxylic acid (4-chloro-pyridin-2-yl)-amide], the inhibition at 10 µM amounted to 100%.
Same read-out and setting: with `O=C(NCCc1cccnc1)c1ccc2[nH]c(Nc3c(Cl)cccc3Cl)nc2c1` [Example 232, 2-(2,6-Dichloro-phenylamino)-1H-benzimidazole-5-carboxylic acid (2-pyridin-3-yl-ethyl)-amide] the figure was 91%.
Regarding `CC(C)c1ccccc1Nc1nc2cc(C(=O)Nc3ccc(Br)cc3)ccc2n1C` [Example 572, N-(4-Bromophenyl)-2-(2-isopropylphenylamino)-1-methyl-1H-benzimidazole-5-carboxamide], the inhibition at 10 µM is 45%.
Take `Cn1c(Nc2c(F)cccc2Cl)nc2cc(C(=O)NCCCC3CC3)c(F)cc21` [Example 390, 2-(2-Chloro-6-fluorophenylamino)-N-(3-cyclopropylpropyl)-6-fluoro-1-methyl-1H-benzimidazole-5-carboxamide]: the inhibition at 10 µM came out at 100%.
The same measure, in the same setting: the same measure for `NCCn1c(Nc2c(Cl)cccc2Cl)nc2cc(C(=O)Nc3cc(Cl)ccn3)ccc21` [Example 211, 2-(2,6-Dichloro-phenylamino)-1-(2-amino-ethyl)-1H-benzimidazole-5-carboxylic acid (4-chloro-pyridin-2-yl)-amide (trifluoroacetate)]: 100%; for `O=C(NC1CCC2(CC1)CC2)c1cc2nc(Nc3c(F)cccc3Cl)[nH]c2cc1F` [Example 399, 2-(2-Chloro-6-fluorophenylamino)-6-fluoro-N-(spiro[2.5]octan-6-yl)-1H-benzimidazole-5-carboxamide]: 99%.
Turning to `Cn1c(Nc2c(Cl)cccc2Cl)nc2cc(C(=O)Nc3cc(C(F)(F)F)ccn3)c(F)cc21` [Example 130, 2-(2,6-Dichloro-phenylamino)-6-fluoro-1-methyl-1H-benzimidazole-5-carboxylic acid (4-trifluoromethyl-pyridin-2-yl)-amide], the inhibition at 10 µM was 93%.
